Measured values published in patent US11254680B2, “Cyclic iminopyrimidine derivatives as kinase inhibitors” (ABM Therapeutics Corporation, priority 2017, dated 2022).

Experiments:
A375 melanoma cells = test: Antiproliferation assay in A375 cell line by CellTiter Glo; format: cell-based; conditions: Homo sapiens, A-375, 72 hours or 144 hours
Experimental: In vitro anti-proliferation study of test compounds in A375 cell line by CellTiter Glo. The cells were routinely maintained as a monolayer culture in corresponding culture medium, at 37° C. with 5% CO2 in air.
Harvest the exponential growth cells by trypsin-EDTA digestion. Re-suspend the cell pellet in fresh culture medium, and adjust the concentration to needed (the cell density per well was listed in following form). The cell viability is over 98% by Trypan blue staining. Inoculate cells into 96 wells plates according to the plate map (90 μL/well). Incubate the plates at 37° C. and 5% CO2 overnight. The next day, prepare the 10×compound containing medium according to the plate map. Transfer 10 μL of 10×compound containing medium into each well of the assay plates (the final DMSO concentration is 0.5%). Gently mix the medium and incubate at 37° C. and 5% CO2 for another 72 hours or 144 hours.
Prepare the reagent according to the manufacture's instruction. Add 50 μL CellTiter-Glo Reagent in each well. Mix contents for 2 minutes on an orbital shaker to induce cell lysis. Allow the plate to incubate at room temperature for 10 minutes to stabilize luminescent signal. Transfer 100 μL of reaction contents of each well from the clear plates into white walled/white opaque 96-well plates. Record the luminescence on Envision.
Using the luminescence measurements [time zero (T0), control growth (C), and test growth in the presence of drug at the six concentration levels (Ti)], the percentage growth is calculated at each of the drug concentrations levels.
Percentage growth inhibition (GI) is calculated as: GI (%)═[(Ti-T0)/(C-T0)]×100 for concentrations for which Ti>=T0, and GI (%)═[(Ti-T0)/T0]×100 for concentrations for which Ti<T0. Data were analyzed using the XLFit (Excel) tool, fitting to a 4-parameter equation to generate concentration response curves. Concentration of compound that inhibits 50% of control cell growth (GI50) was back-interpolated when y=50% of net growth of DMSO treated control wells using nonlinear regression with the equation: f(x) 205 [fit=(A+((B−A)/(1+((C/x)^))))], where A is the minimum response (Ymin), B is the maximum response (Ymax), C is the inflection point of the curve (Re GI50) and D is the Hill coefficient. Growth inhibition of 50% (GI50) was calculated at the 50% Growth inhibition on the curve. Index values were the sum of Inhibition rate (IR) at each tested compound concentration.

P-glycoprotein (MDR1) = test: MDCK-MDR1 Permeability Assay; format: in vitro ADME, canine; conditions: dog; for efflux ratio at 120 min: MDCK-MDR1, Papp(B-A)/Papp(A-B); for Papp A→B at 120 min: MDCK-MDR1, apical to basolateral; for Papp A→B at 120 min / Papp B→A at 120 min: 1-30 μM; for Papp B→A at 120 min: MDCK-MDR1, basolateral to apical
Experimental: MDCK-MDR1 cells originate from transfection of Madin Darby canine kidney (MDCK) cells with the MDR1 gene, the gene encoding for the efflux protein, P-glycoprotein. This cell line is ideal for identifying substrates of P-gp, with or without an inhibitor. The cells are seeded on a Multiscreen™ plate to form a confluent monolayer over 4 days prior to the experiment. On day 4, the test compound (1-30 μM concentration) is added to the apical side of the membrane and the transport of the compound across the monolayer is monitored over a 120 minutes time period. To study drug efflux, it is also necessary to investigate transport of the compound from the basolateral compartment to the apical compartment and calculate an efflux ratio.
(§1) The permeability coefficient (Papp) is calculated from the following equation: Papp=[(dQ/dt)/C0×A] where dQ/dt is the rate of permeation of the drug across the cells, C0 is the donor compartment concentration at time zero and A is the area of the cell monolayer.
An efflux ratio is calculated from the mean apical to basolateral (A-B) Papp data and basolateral to apical (B-A) Papp data. Efflux Ratio=Papp(B−A)/Papp(A−B)

[1] = Caco-2 Permeability Assay; format: in vitro ADME; conditions: human; for efflux ratio at 120 min: Caco-2; for Papp A→B at 120 min: Caco-2, apical to basolateral; for Papp A→B at 120 min / Papp B→A at 120 min: 1-30 μM; for Papp B→A at 120 min: Caco-2, basolateral to apical
Experimental: Caco-2 cells are widely used as an in vitro assay to measure the permeability of a drug compound. The Caco-2 cell line is derived from a human colorectal carcinoma, and when cultured, the cells spontaneously differentiate into monolayers of polarized enterocytes. Caco-2 cells express P-glycoprotein and breast cancer resistance protein, two of the most relevant cell membrane active transporters that affect drug compound's permeability into cells and blood brain barrier.
The cells are seeded on Millipore Millicell plates and form a confluent monolayer over 20 days prior to the experiment. On day 20, the test compound (1-30 μM concentration) is added to the apical side of the membrane and the transport of the compound across the monolayer is monitored over a 120 minutes time period. To study drug efflux, it is also necessary to investigate transport of the compound from the basolateral compartment to the apical compartment.
as §1, with “monolayer. C0 is obtained from analysis of the dosing solution at the start experiment.” for “monolayer.”

| SMILES | GI50 (A375 melanoma cells) | efflux ratio at 120 min (P-glycoprotein (MDR1)) | Papp A→B at 120 min (P-glycoprotein (MDR1)) | Papp B→A at 120 min (P-glycoprotein (MDR1)) | efflux ratio at 120 min [1] | Papp A→B at 120 min [1] | Papp B→A at 120 min [1] |
| --- | --- | --- | --- | --- | --- | --- | --- |
| CCCS(=O)(=O)N(C)c1cccc(Oc2ccc3c(c2)C2=NCCN2C=N3)c1C#N [Compound 2, N-(2-Cyano-3-((2,3-dihydroimidazo[1,2-c]quinazolin-9-yl)oxy)phenyl)-N-methylpropane-1-sulfonamide] | > 1000 nM | 2.63 | 19 ×10⁻⁶ cm/s | 50 ×10⁻⁶ cm/s | – | – | – |
| CCCS(=O)(=O)Nc1ccc(F)c(Oc2ccc3c(c2)C2=NCCN2C=N3)c1C#N [Compound 3, N-(2-Cyano-3-((2,3-dihydroimidazo[1,2-c]quinazolin-9-yl)oxy)-4-fluorophenyl)propane-1-sulfonamide] | < 100 nM | 9.85 | 2.15 ×10⁻⁶ cm/s | 21.2 ×10⁻⁶ cm/s | 1.48 | 9.24 ×10⁻⁶ cm/s | 13.7 ×10⁻⁶ cm/s |
| CCCS(=O)(=O)Nc1c(F)ccc(Oc2ccc3c(c2)C2=NCCN2C=N3)c1C#N [Compound 5, N-(2-Cyano-3-((2,3-dihydroimidazo[1,2-c]quinazolin-9-yl)oxy)-6-fluorophenyl)propane-1-sulfonamide] | 100 to 1000 nM | 1.82 | 1.21 ×10⁻⁶ cm/s | 2.19 ×10⁻⁶ cm/s | – | – | – |
| CCCS(=O)(=O)Nc1cccc(Oc2ccc3c(c2)C2=NCCN2C=N3)c1F [Compound 9, N-(3-((2,3-Dihydroimidazo[1,2-c]quinazolin-9-yl)oxy)-2-fluorophenyl)propane-1-sulfonamide] | 100 to 1000 nM | 2.47 | 17.6 ×10⁻⁶ cm/s | 43.4 ×10⁻⁶ cm/s | – | – | – |
| CCCS(=O)(=O)Nc1cccc(Oc2ccc3c(c2)C2=NCCN2C=N3)c1C(F)(F)F [Compound 11, N-(3-((2,3-Dihydroimidazo[1,2-c]quinazolin-9-yl)oxy)-2-(trifluoromethyl)phenyl)propane-1-sulfonamide] | 100 to 1000 nM | 1.22 | 34.6 ×10⁻⁶ cm/s | 42.3 ×10⁻⁶ cm/s | – | – | – |
| CCCS(=O)(=O)Nc1cccc(Oc2ccc3c(c2)C2=NCCN2C=N3)c1[N+](=O)[O-] [Compound 12, N-(3-((2,3-Dihydroimidazo[1,2-c]quinazolin-9-yl)oxy)-2-nitrophenyl)propane-1-sulfonamide] | < 100 nM | 4.3 | 6.6 ×10⁻⁶ cm/s | 28.4 ×10⁻⁶ cm/s | – | – | – |
| N#Cc1c(NS(=O)(=O)c2ccccc2F)cccc1Oc1ccc2c(c1)C1=NCCN1C=N2 [Compound 14, N-(2-Cyano-3-((2,3-dihydroimidazo[1,2-c]quinazolin-9-yl)oxy)phenyl)-2-fluorobenzenesulfonamide] | < 100 nM | 2.73 | 3.03 ×10⁻⁶ cm/s | 8.29 ×10⁻⁶ cm/s | 2.77 | 6.37 ×10⁻⁶ cm/s | 17.7 ×10⁻⁶ cm/s |
| N#Cc1c(NS(=O)(=O)c2cccs2)cccc1Oc1ccc2c(c1)C1=NCCN1C=N2 [Compound 15, N-(2-Cyano-3-((2,3-dihydroimidazo[1,2-c]quinazolin-9-yl)oxy)phenyl)thiophene-2-sulfonamide] | 100 to 1000 nM | 1.73 | 3.1 ×10⁻⁶ cm/s | 5.36 ×10⁻⁶ cm/s | 2.94 | 5.08 ×10⁻⁶ cm/s | 14.9 ×10⁻⁶ cm/s |
| CCCS(=O)(=O)Nc1ccc(F)c(Oc2ccc3c(c2)C2=NCCCN2C=N3)c1C#N [Compound 17, N-(2-cyano-3-((3,4-dihydro-2H-pyrimido[1,2-c]quinazolin-10-yl)oxy)-4-fluorophenyl)propane-1-sulfonamide] | < 100 nM | 13.2 | 0.7 ×10⁻⁶ cm/s | 9.28 ×10⁻⁶ cm/s | – | – | – |
| O=S(=O)(Nc1cccc(Oc2ccc3c(c2)C2=NCCN2C=N3)c1Cl)N1CC[C@@H](F)C1 [Compound 46, (R)—N-(2-Chloro-3-((2,3-dihydroimidazo[1,2-c]quinazolin-9-yl)oxy)phenyl)-3-fluoropyrrolidine-1-sulfonamide] | < 100 nM | 2.79 | 20.8 ×10⁻⁶ cm/s | 57.9 ×10⁻⁶ cm/s | – | – | – |
